{"source": "patent US20240058464A1", "about": "(Fortis Therapeutics, Inc., priority 2021, published 2024)", "key": {"[1]": {"system": "CD46 expression", "assay": "CD46 expression by RNA-sequencing in paired tumor biopsies before and after therapy;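 on all read-outs here: FFPE human tumor biopsies, exome-capture RNA-seq, reads aligned to GRCh37, counts normalized for GC content, length and depth, summed per gene, log2-transformed, samples paired before versus after therapy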", "conditions": "paired biopsies; for CD46 expression, Post-Treatment Biopsy: RNA-seq log2-transformed counts", "procedure": "Gene expression was determined by RNA-sequencing from formalin-fixed, paraffin-embedded (FFPE) tumor samples using an exome capture-based protocol. Briefly, total nucleic acid was extracted from FFPE solid tumor samples. The RNA sample was treated with DNAse and reverse transcribed. cDNA was captured with a custom probe set targeting the human exome. A library was prepared from the captured cDNA and sequenced on the Illumina platform. Sequence read were aligned to GRCh37 using Kallisto and normalized to quantify gene expression. Specifically, transcript counts were corrected for GC content and length using quantile normalization and adjusted for sequencing depth via a size factor method. Normalized counts in protein coding transcripts covered by the exome panel were then summed to obtain gene-level counts. Subsequent expression analyses were performed on log2-transformed counts."}, "[2]": {"system": "CD46 expression", "assay": "CD46 expression by RNA-sequencing in unpaired pre-treatment and post-treatment tumor biopsies", "type": "in vivo, human", "conditions": "for CD46 expression Post: post-treatment biopsies"}, "[3]": {"conditions": "Non-Small Cell Lung Cancer, Post minus Pre, unpaired biopsies, log2-transformed counts"}, "[4]": {"conditions": "Non-Small Cell Lung Cancer, post- vs pre-treatment unpaired biopsies"}, "[5]": {"conditions": "Non-Small Cell Lung Cancer, unpaired, RNA-seq log2-transformed normalized counts"}, "[6]": {"conditions": "Breast Cancer, Post minus Pre, unpaired biopsies, log2-transformed counts"}, "[7]": {"conditions": "Breast Cancer, post- vs pre-treatment unpaired biopsies"}, "[8]": {"conditions": "Breast Cancer, unpaired, RNA-seq log2-transformed normalized counts"}}}
{"smiles": "CC(=O)O[C@H]1C(=O)[C@@]2(C)[C@H]([C@H](OC(=O)c3ccccc3)[C@]3(O)C[C@H](OC(=O)[C@H](O)[C@@H](NC(=O)c4ccccc4)c4ccccc4)C(C)=C1C3(C)C)[C@]1(OC(C)=O)CO[C@@H]1C[C@@H]2O", "note": "[paclitaxel]", "values": [{"measurement": "CD46 expression diff (post minus pre)", "setting": "[1]; Breast Cancer", "value": "−0.09"}, {"measurement": "Percent Change in CD46 expression", "setting": "[1]; Breast Cancer", "value": "−1.4", "unit": "%"}, {"measurement": "CD46 expression, Post-Treatment Biopsy", "setting": "[1]; Breast Cancer", "value": 6.12}, {"measurement": "CD46 expression diff (post minus pre)", "setting": "[1]; Endometrial Cancer", "value": 0.19}, {"measurement": "Percent Change in CD46 expression", "setting": "[1]; Endometrial Cancer", "value": 3.2, "unit": "%"}, {"measurement": "CD46 expression, Post-Treatment Biopsy", "setting": "[1]; Endometrial Cancer", "value": 6.01}, {"measurement": "CD46 expression diff (post minus pre)", "setting": "[1]; Esophageal Cancer", "value": 0.05}, {"measurement": "Percent Change in CD46 expression", "setting": "[1]; Esophageal Cancer", "value": 0.8, "unit": "%"}, {"measurement": "CD46 expression, Post-Treatment Biopsy", "setting": "[1]; Esophageal Cancer", "value": 6.02}, {"measurement": "CD46 expression diff (post minus pre)", "setting": "[1]; Non-Small Cell Lung Cancer", "value": "−0.23"}, {"measurement": "Percent Change in CD46 expression", "setting": "[1]; Non-Small Cell Lung Cancer", "value": "−3.7", "unit": "%"}, {"measurement": "CD46 expression, Post-Treatment Biopsy", "setting": "[1]; Non-Small Cell Lung Cancer", "value": 5.89}, {"measurement": "CD46 expression diff (post minus pre)", "setting": "[1]; Ovarian Cancer", "value": "−0.04"}, {"measurement": "Percent Change in CD46 expression", "setting": "[1]; Ovarian Cancer", "value": "−0.8", "unit": "%"}, {"measurement": "CD46 expression, Post-Treatment Biopsy", "setting": "[1]; Ovarian Cancer", "value": 5.67}, {"measurement": "CD46 expression diff", "setting": "[2]; Breast Cancer, post minus pre, unpaired biopsies", "value": "−0.15"}, {"measurement": "CD46 expression Percentage change", "setting": "[2]; Breast Cancer, post vs pre, unpaired biopsies", "value": "−2.4", "unit": "%"}, {"measurement": "CD46 expression Post", "setting": "[2]; Breast Cancer, log2-transformed RNA-seq counts", "value": 6.04}, {"measurement": "CD46 expression diff", "setting": "[2]; Endometrial Cancer, Post minus Pre, unpaired biopsies, log2-transformed counts", "value": 0.03}, {"measurement": "CD46 expression Percentage change", "setting": "[2]; Endometrial Cancer, post- vs pre-treatment unpaired biopsies", "value": 0.6, "unit": "%"}, {"measurement": "CD46 expression Post", "setting": "[2]; Endometrial Cancer, unpaired, RNA-seq log2-transformed normalized counts", "value": 5.85}, {"measurement": "CD46 expression diff", "setting": "[2]; Esophageal Cancer, Post minus Pre, unpaired biopsies, log2-transformed counts", "value": "−0.13"}, {"measurement": "CD46 expression Percentage change", "setting": "[2]; Esophageal Cancer, post- vs pre-treatment unpaired biopsies", "value": "−2.1", "unit": "%"}, {"measurement": "CD46 expression Post", "setting": "[2]; Esophageal Cancer, unpaired, RNA-seq log2-transformed normalized counts", "value": 5.79}, {"measurement": "CD46 expression diff", "setting": "[2]; Gastric Cancer, Post minus Pre, unpaired biopsies, log2-transformed counts", "value": 0.04}, {"measurement": "CD46 expression Percentage change", "setting": "[2]; Gastric Cancer, post- vs pre-treatment unpaired biopsies", "value": 0.7, "unit": "%"}, {"measurement": "CD46 expression Post", "setting": "[2]; Gastric Cancer, unpaired, RNA-seq log2-transformed normalized counts", "value": 5.82}, {"measurement": "CD46 expression diff", "setting": "[2]; Head and Neck Squamous Cell Carcinoma, Post minus Pre, unpaired biopsies, log2-transformed counts", "value": 0.13}, {"measurement": "CD46 expression Percentage change", "setting": "[2]; Head and Neck Squamous Cell Carcinoma, post- vs pre-treatment unpaired biopsies", "value": 2.4, "unit": "%"}, {"measurement": "CD46 expression Post", "setting": "[2]; Head and Neck Squamous Cell Carcinoma, unpaired, RNA-seq log2-transformed normalized counts", "value": 5.68}, {"measurement": "CD46 expression diff", "setting": "[2]; [3]", "value": "−0.07"}, {"measurement": "CD46 expression Percentage change", "setting": "[2]; [4]", "value": "−1.1", "unit": "%"}, {"measurement": "CD46 expression Post", "setting": "[2]; [5]", "value": 6.00}, {"measurement": "CD46 expression diff", "setting": "[2]; Ovarian Cancer, Post minus Pre, unpaired biopsies, log2-transformed counts", "value": "−0.01"}, {"measurement": "CD46 expression Percentage change", "setting": "[2]; Ovarian Cancer, post- vs pre-treatment unpaired biopsies", "value": "−0.1", "unit": "%"}, {"measurement": "CD46 expression Post", "setting": "[2]; Ovarian Cancer, unpaired, RNA-seq log2-transformed normalized counts", "value": 5.73}, {"measurement": "CD46 expression diff", "setting": "[2]; Sarcoma, Post minus Pre, unpaired biopsies, log2-transformed counts", "value": "−0.09"}, {"measurement": "CD46 expression Percentage change", "setting": "[2]; Sarcoma, post- vs pre-treatment unpaired biopsies", "value": "−1.7", "unit": "%"}, {"measurement": "CD46 expression Post", "setting": "[2]; Sarcoma, unpaired, RNA-seq log2-transformed normalized counts", "value": 4.96}]}
{"smiles": "CC(=O)c1c(C)c2cnc(Nc3ccc(N4CCNCC4)cn3)nc2n(C2CCCC2)c1=O", "note": "[palbociclib]", "values": [{"measurement": "CD46 expression diff (post minus pre)", "setting": "[1]; Breast Cancer", "value": "−0.17"}, {"measurement": "Percent Change in CD46 expression", "setting": "[1]; Breast Cancer", "value": "−2.7", "unit": "%"}, {"measurement": "CD46 expression, Post-Treatment Biopsy", "setting": "[1]; Breast Cancer", "value": 6.34}, {"measurement": "CD46 expression diff", "setting": "[2]; [6]", "value": 0.01}, {"measurement": "CD46 expression Percentage change", "setting": "[2]; [7]", "value": 0.2, "unit": "%"}, {"measurement": "CD46 expression Post", "setting": "[2]; [8]", "value": 6.42}]}
{"smiles": "Nc1nc2[nH]cc(CCc3ccc(C(=O)N[C@@H](CCC(=O)O)C(=O)O)cc3)c2c(=O)[nH]1", "note": "[pemetrexed]", "values": [{"measurement": "CD46 expression diff (post minus pre)", "setting": "[1]; Non-Small Cell Lung Cancer", "value": "−0.20"}, {"measurement": "Percent Change in CD46 expression", "setting": "[1]; Non-Small Cell Lung Cancer", "value": "−3.1", "unit": "%"}, {"measurement": "CD46 expression, Post-Treatment Biopsy", "setting": "[1]; Non-Small Cell Lung Cancer", "value": 6.22}, {"measurement": "CD46 expression diff", "setting": "[2]; [3]", "value": "−0.11"}, {"measurement": "CD46 expression Percentage change", "setting": "[2]; [4]", "value": "−1.8", "unit": "%"}, {"measurement": "CD46 expression Post", "setting": "[2]; [5]", "value": 6.27}]}
{"smiles": "C[C@]12C=CC(=O)C=C1CC[C@@H]1[C@@H]2C(=O)C[C@@]2(C)[C@H]1CC[C@]2(O)C(=O)CO", "note": "[prednisone]", "values": [{"measurement": "CD46 expression diff (post minus pre)", "setting": "[1]; Prostate Cancer", "value": 0.13}, {"measurement": "Percent Change in CD46 expression", "setting": "[1]; Prostate Cancer", "value": 2.3, "unit": "%"}, {"measurement": "CD46 expression, Post-Treatment Biopsy", "setting": "[1]; Prostate Cancer", "value": 5.85}, {"measurement": "CD46 expression diff", "setting": "[2]; [3]", "value": 0.02}, {"measurement": "CD46 expression Percentage change", "setting": "[2]; [4]", "value": 0.3, "unit": "%"}, {"measurement": "CD46 expression diff", "setting": "[2]; Prostate Cancer, Post minus Pre, unpaired biopsies, log2-transformed counts", "value": "−0.10"}, {"measurement": "CD46 expression Percentage change", "setting": "[2]; Prostate Cancer, post- vs pre-treatment unpaired biopsies", "value": "−1.7", "unit": "%"}, {"measurement": "CD46 expression Post", "setting": "[2]; Prostate Cancer, unpaired, RNA-seq log2-transformed normalized counts", "value": 6.08}]}
{"smiles": "CNC(=O)c1cc(Oc2ccc(NC(=O)Nc3ccc(Cl)c(C(F)(F)F)c3)c(F)c2)ccn1", "note": "[regorafenib]", "values": [{"measurement": "CD46 expression diff (post minus pre)", "setting": "[1]; Colorectal Cancer", "value": 0.25}, {"measurement": "Percent Change in CD46 expression", "setting": "[1]; Colorectal Cancer", "value": 4.0, "unit": "%"}, {"measurement": "CD46 expression, Post-Treatment Biopsy", "setting": "[1]; Colorectal Cancer", "value": 6.49}, {"measurement": "CD46 expression diff", "setting": "[2]; Colorectal Cancer, Post minus Pre, unpaired biopsies, log2-transformed counts", "value": 0.19}, {"measurement": "CD46 expression Percentage change", "setting": "[2]; Colorectal Cancer, post- vs pre-treatment unpaired biopsies", "value": 2.9, "unit": "%"}, {"measurement": "CD46 expression Post", "setting": "[2]; Colorectal Cancer, unpaired, RNA-seq log2-transformed normalized counts", "value": 6.63}]}
{"smiles": "CC/C(=C(\\c1ccccc1)c1ccc(OCCN(C)C)cc1)c1ccccc1", "note": "[tamoxifen]", "values": [{"measurement": "CD46 expression diff (post minus pre)", "setting": "[1]; Breast Cancer", "value": 0.11}, {"measurement": "Percent Change in CD46 expression", "setting": "[1]; Breast Cancer", "value": 1.7, "unit": "%"}, {"measurement": "CD46 expression, Post-Treatment Biopsy", "setting": "[1]; Breast Cancer", "value": 6.32}, {"measurement": "CD46 expression diff", "setting": "[2]; [6]", "value": 0.11}, {"measurement": "CD46 expression Percentage change", "setting": "[2]; [7]", "value": 1.8, "unit": "%"}, {"measurement": "CD46 expression Post", "setting": "[2]; [8]", "value": 6.38}]}
